The results in this text go back to patent publication US9150526B2, “Biaryl-propionic acid derivatives and their use as pharmaceuticals” (SANOFI, priority 2013, dated 2015).

For the test, the system named is Recombinant human cathepsin A. The test can be described thus: Cathepsin A inhibitory activity (Bodipy FL-bradykinin substrate, microfluidic capillary electrophoresis). Format: biochemical. The settings on record: read-out: CATH A IC50. On the procedure: Pharmacological Tests a) Cathepsin a Inhibitory Activity
Recombinant human cathepsin A (residues 29-480, with a C-terminal 10-His tag; R&D Systems, #1049-SE) was proteolytically activated with recombinant human cathepsin L (R&D Systems, #952-CY). Briefly, cathepsin A was incubated at 10 μg/ml with cathepsin L at 1 μg/ml in activation buffer (25 mM 2-(morpholin-4-yl)-ethanesulfonic acid (MES), pH 6.0, containing 5 mM dithiothreitol (DTT)) for 15 min at 37° C.
The activated cathepsin A was diluted in assay buffer (25 mM MES, pH 5.5, containing 5 mM DTT) and mixed with the test compound (dissolved in assay buffer containing (v/v) 3% DMSO) or, in the control experiments, with the vehicle in a multiple assay plate. After incubation for 15 min at room temperature, as substrate then bradykinin carrying an N-terminal ®Bodipy FL (4,4-difluoro-5,7-dimethyl-4-bora-3a,4a-diaza-s-indacene-3-propionyl) label (JPT Peptide Technologies GmbH; dissolved in assay buffer) was added to the mixture. The final concentration of cathepsin A was 833 ng/ml and the final concentration of labeled bradykinin 2 μM. After incubation for 15 min at room temperature the reaction was stopped by the addition of stop buffer (130 mM 2-(4-(2-hydroxy-ethyl)-piperazin-1-yl)-ethanesulfonic acid, pH 7.4, containing (v/v) 0.013% ®Triton X-100, 0.13% Coating Reagent 3 (Caliper Life Sciences), 6.5% DMSO and 20 μM ebelactone B (Sigma, # E0886)).
Uncleaved substrate and product were then separated by a microfluidic capillary electrophoresis on a LabChip® 3000 Drug Discovery System (12-Sipper-Chip; Caliper Life Sciences) and quantified by determination of the respective peak areas. Substrate turnover was calculated by dividing product peak area by the sum of substrate and product peak areas, and the enzyme activity and the inhibitory effect of the test compound thus quantified.

In general, IC50 refers to the concentration that gives 50% inhibition. As to `COc1ccc(OC(F)(F)F)cc1-c1cccc(C(CC(=O)O)c2ncc(C)s2)c1` (centres unmarked) [compound 60], the IC50 is 269 nM.
With `COc1c(F)cc(F)cc1-c1cccc(C(CC(=O)O)c2ncc(C)s2)c1` (centres unmarked) [compound 61], the IC50 came to 367 nM.
On to `COc1ccc(Cl)cc1-c1cccc(C(CC(=O)O)c2ncc(C)s2)c1` (centres unmarked) [compound 62], for which the IC50 was determined as 262 nM.
Consider `COc1ccc(F)cc1-c1ccc(OC)c(C(CC(=O)O)c2ncc(C)s2)c1` (centres unmarked) [compound 63], for which the 50% inhibitory concentration (IC50) stood at 1170 nM.
The figure for `COc1ccc(C(C)C)cc1-c1cccc(C(CC(=O)O)c2nnc(C)o2)c1` (centres unmarked) [compound 64] is 49 nM; for `COc1ccc(Cl)cc1-c1ccc(OC)c(C(CC(=O)O)c2ncc(C)s2)c1` (centres unmarked) [compound 65] it is 3050 nM.
As for `COc1ccccc1-c1ccc(OC)c(C(CC(=O)O)c2ncc(C)s2)c1` (centres unmarked) [compound 66], the IC50 is 4410 nM.
For `COc1ccc(C)cc1-c1ccc(OC)c(C(CC(=O)O)c2ncc(C)s2)c1` (centres unmarked) [compound 67] the value was 9690 nM; for `COc1cccc(F)c1-c1cc(Cl)cc(C(CC(=O)O)c2ncc(C)s2)c1` (centres unmarked) [compound 71], 16 nM; for `COc1ccc(OC)c(-c2cc(Cl)cc(C(CC(=O)O)c3ncc(C)s3)c2)c1OC` (centres unmarked) [compound 72], 18 nM.
With `COc1cc(C)cc(OC)c1-c1cc(Cl)cc(C(CC(=O)O)c2ncc(C)s2)c1` (centres unmarked) [compound 74], the half-inhibitory concentration (IC50) came out at 19 nM.
`COc1ccccc1-c1cc(Cl)cc(C(CC(=O)O)c2ncc(C)s2)c1` (centres unmarked) [compound 75]: the IC50 is 21 nM.
Take `COc1ccc(OC)c(-c2cc(Cl)cc(C(CC(=O)O)c3ncc(C)s3)c2)c1` (centres unmarked) [compound 76]: the IC50 came out at 28 nM.
For the compound `COc1ccc(CO)cc1-c1cc(Cl)cc(C(CC(=O)O)c2ncc(C)s2)c1` (centres unmarked) [compound 77], the IC50 turned out to be 29 nM.
For `COc1ccc(F)c(F)c1-c1cc(Cl)cc(C(CC(=O)O)c2ncc(C)s2)c1` (centres unmarked) [compound 78], the IC50 was 37 nM.
For `COc1ccc(F)cc1-c1cc(Cl)cc(C(CC(=O)O)c2ncc(C)s2)c1` (centres unmarked) [compound 79] the value was 38 nM.
On to `CCOc1ccccc1-c1cc(Cl)cc(C(CC(=O)O)c2ncc(C)s2)c1` (centres unmarked) [compound 80], for which the IC50 stood at 47 nM.
The figure for `COc1ccc(C)cc1-c1cc(Cl)cc(C(CC(=O)O)c2ncc(C)s2)c1` (centres unmarked) [compound 81] is 52 nM.
As for `COc1cccc(CO)c1-c1cc(Cl)cc(C(CC(=O)O)c2ncc(C)s2)c1` (centres unmarked) [compound 82], the IC50 is 52 nM.
For `COc1ccc(-c2cc(Cl)cc(C(CC(=O)O)c3ncc(C)s3)c2)c(OC)c1` (centres unmarked) [compound 83] the value was 53 nM; for `COc1cccc(Cl)c1-c1cc(Cl)cc(C(CC(=O)O)c2ncc(C)s2)c1` (centres unmarked) [compound 84], 53 nM; for `COc1ccc(C(C)(C)C)cc1-c1cc(Cl)cc(C(CC(=O)O)c2ncc(C)s2)c1` (centres unmarked) [compound 85], 55 nM.
`CCOc1ccc(C)cc1-c1cc(Cl)cc(C(CC(=O)O)c2ncc(C)s2)c1` (centres unmarked) [compound 86]: the IC50 is 65 nM.
Turning to `COc1ccc(C(C)C)cc1-c1cc(Cl)cc(C(CC(=O)O)c2ncc(C)s2)c1` (centres unmarked) [compound 87], the IC50 was 93 nM.
For `COc1cccc(C#N)c1-c1cc(Cl)cc(C(CC(=O)O)c2ncc(C)s2)c1` (centres unmarked) [compound 88] the value was 103 nM.
For `COc1cc(C(N)=O)ccc1-c1cc(Cl)cc(C(CC(=O)O)c2ncc(C)s2)c1` (centres unmarked) [compound 89], the IC50 came out at 118 nM.
The figure for `COc1cc(F)ccc1-c1cc(Cl)cc(C(CC(=O)O)c2ncc(C)s2)c1` (centres unmarked) [compound 90] is 119 nM.
For `COc1c(F)cc(F)cc1-c1cc(Cl)cc(C(CC(=O)O)c2ncc(C)s2)c1` (centres unmarked) [compound 91] the value was 131 nM.
Turning to `COc1c(Cl)cccc1-c1cc(Cl)cc(C(CC(=O)O)c2ncc(C)s2)c1` (centres unmarked) [compound 92], the IC50 stood at 134 nM.
`COc1c(C)cccc1-c1cc(Cl)cc(C(CC(=O)O)c2ncc(C)s2)c1` (centres unmarked) [compound 93]: the IC50 turned out to be 164 nM.
Take `COc1ccc(OC(F)(F)F)cc1-c1cc(Cl)cc(C(CC(=O)O)c2ncc(C)s2)c1` (centres unmarked) [compound 94]: the IC50 worked out at 165 nM.
Consider `Cc1cnc(C(CC(=O)O)c2cc(Cl)cc(-c3ccccc3OC(F)(F)F)c2)s1` (centres unmarked) [compound 95], for which the IC50 worked out at 221 nM.
The figure for `COc1cc(C)cc(OC)c1-c1cc(F)cc(C(CC(=O)O)c2ncc(C)s2)c1` (centres unmarked) [compound 99] is 28 nM; for `COc1ccc(C)cc1-c1cc(F)cc(C(CC(=O)O)c2ncc(C)s2)c1` (centres unmarked) [compound 100] it is 52 nM.
Consider `COc1cccc(F)c1-c1cc(F)cc(C(CC(=O)O)c2ncc(C)s2)c1` (centres unmarked) [compound 101], for which the IC50 amounted to 56 nM.
The figure for `COc1cccc(Cl)c1-c1cc(F)cc(C(CC(=O)O)c2ncc(C)s2)c1` (centres unmarked) [compound 105] is 96 nM; for `COc1ccc(C(C)C)cc1-c1cccc([C@H](CC(=O)O)c2nnc(C)o2)c1` [compound 108] it is 6260 nM.
For `COc1ccccc1-c1cc(F)cc(C(CC(=O)O)c2ncc(C)s2)c1` (centres unmarked) [compound 110] the value was 116 nM; for `COc1ccc(OC)c(-c2cc(F)cc(C(CC(=O)O)c3ncc(C)s3)c2)c1` (centres unmarked) [compound 112], 122 nM.
With `COc1ccc(C(C)(C)C)cc1-c1cc(F)cc(C(CC(=O)O)c2ncc(C)s2)c1` (centres unmarked) [compound 113], the IC50 is 124 nM.
For `CCOc1ccc(C)cc1-c1cc(F)cc(C(CC(=O)O)c2ncco2)c1` (centres unmarked) [compound 117], the IC50 turned out to be 155 nM.
The figure for `COc1ccc(C(C)C)cc1-c1cc(F)cc(C(CC(=O)O)c2ncc(C)s2)c1` (centres unmarked) [compound 119] is 195 nM.
For the compound `COc1ccc(-c2cc(F)cc(C(CC(=O)O)c3ncc(C)s3)c2)c(OC)c1` (centres unmarked) [compound 120], the IC50 came to 199 nM.
For `COc1ccc(OC(F)(F)F)cc1-c1cc(F)cc(C(CC(=O)O)c2ncco2)c1` (centres unmarked) [compound 122] the value was 222 nM.
For `COc1cc(F)ccc1-c1cc(F)cc(C(CC(=O)O)c2ncc(C)s2)c1` (centres unmarked) [compound 123] the value was 246 nM; for `COc1ccc(OC(F)(F)F)cc1-c1cc(F)cc(C(CC(=O)O)c2ncc(C)s2)c1` (centres unmarked) [compound 124], 275 nM.
As to `COc1c(C)cccc1-c1cc(F)cc(C(CC(=O)O)c2ncc(C)s2)c1` (centres unmarked) [compound 128], the IC50 stood at 410 nM.
The figure for `COc1c(F)cc(F)cc1-c1cc(F)cc(C(CC(=O)O)c2ncco2)c1` (centres unmarked) [compound 129] is 457 nM; for `O=C(O)CC(c1cc(F)cc(-c2ccccc2OC(F)(F)F)c1)c1ncco1` (centres unmarked) [compound 130] it is 466 nM; for `COc1cccc(OC)c1-c1cccc(C(CC(=O)O)c2nnc(C)o2)c1` (centres unmarked) [compound 135] it is 17 nM.
The figure for `COc1ccc(C)cc1-c1cccc(C(CC(=O)O)c2nnc(C)o2)c1` (centres unmarked) [compound 136] is 24 nM.
In the case of `COc1cc(C)cc(OC)c1-c1cccc(C(CC(=O)O)c2nnc(C)o2)c1` (centres unmarked) [compound 137], the IC50 stood at 24 nM.
The figure for `COc1ccc(OC)c(-c2cccc(C(CC(=O)O)c3nnc(C)o3)c2)c1` (centres unmarked) [compound 138] is 41 nM.
The figure for `COc1ccc(F)cc1-c1cccc(C(CC(=O)O)c2nnc(C)o2)c1` (centres unmarked) [compound 139] is 60 nM; for `COc1ccccc1-c1cccc(C(CC(=O)O)c2nnc(C)o2)c1` (centres unmarked) [compound 140] it is 61 nM.
For `COc1ccc(CO)cc1-c1cccc(C(CC(=O)O)c2nnc(C)o2)c1` (centres unmarked) [compound 141] the value was 72 nM; for `COc1cccc(Cl)c1-c1cccc(C(CC(=O)O)c2nnc(C)o2)c1` (centres unmarked) [compound 142], 80 nM.
On to `COc1ccc(OC(F)(F)F)cc1-c1cccc(C(CC(=O)O)c2nnc(C)o2)c1` (centres unmarked) [compound 143], for which the 50% inhibitory concentration (IC50) was found to be 85 nM.
In the case of `CCOc1ccccc1-c1cccc(C(CC(=O)O)c2nnc(C)o2)c1` (centres unmarked) [compound 144], the IC50 was 91 nM.
The figure for `COc1cccc(F)c1-c1cccc(C(CC(=O)O)c2nnc(C)o2)c1` (centres unmarked) [compound 145] is 116 nM; for `COc1cc(F)ccc1-c1cccc(C(CC(=O)O)c2nnc(C)o2)c1` (centres unmarked) [compound 146] it is 129 nM; for `COc1ccc(-c2cccc(C(CC(=O)O)c3nnc(C)o3)c2)c(OC)c1` (centres unmarked) [compound 147] it is 137 nM.
The figure for `Cc1nnc(C(CC(=O)O)c2cccc(-c3ccccc3OC(F)(F)F)c2)o1` (centres unmarked) [compound 148] is 243 nM; for `COc1ccc(S(C)(=O)=O)cc1-c1cccc(C(CC(=O)O)c2nnc(C)o2)c1` (centres unmarked) [compound 149] it is 265 nM.
For `COc1cccc(CO)c1-c1cccc(C(CC(=O)O)c2nnc(C)o2)c1` (centres unmarked) [compound 150], the IC50 is 325 nM.
As for `COc1c(C)cccc1-c1cccc(C(CC(=O)O)c2nnc(C)o2)c1` (centres unmarked) [compound 151], the IC50 was found to be 571 nM.
The figure for `COc1cccc(C#N)c1-c1cccc(C(CC(=O)O)c2nnc(C)o2)c1` (centres unmarked) [compound 152] is 652 nM; for `COc1ccc(C(C)C)cc1-c1cc(Cl)cc(C(CC(=O)O)c2nnc(C)o2)c1` (centres unmarked) [compound 153] it is 25 nM.
